Molecules are shown by their SMILES. Read-outs that look alike come from different tables or passages of the source.

The data set concerns Adjuvant Arthritis In Rats. Briefly: Adjuvant-induced arthritis in rats (chronic inflammation accompanied by joint destruction). Type of data set: in vivo, Royal Hart, Wistar strain rats. The following applies: for inhibition in vivo at 50 mg/kg / inhibition in vivo at 25 mg/kg / inhibition in vivo at 100 mg/kg / inhibition in vivo at 200 mg/kg / inhibition in vivo at 400 mg/kg: Rattus norvegicus. The procedure: Groups of three Royal Hart, Wistar strain rats weighing 200±10 grams each were injected intradermally in the right hind paw with Freund's adjuvant (dried human tubercle bacilli in a mineral oil vehicle) at a dose of 2 mg./kg. of body weight. […] On the 14th and 21st day post challenge the diameter of the injected paw (primary lesion) was measured by micrometer caliper. The volume of inflamed paws were estimated from these measurements and the results are expressed as percent inhibition of swelling as compared to controls. At the same time, the other inflamed sites, such as ears, paws and tail (secondary lesions) were observed and each rat was graded as to degree of inflammation and swelling present. The grading is based on a scale of 0 to 24 where 0 represents a complete absence of induced arthritic nodules and 24 represents the maximum degree of inflammation. The mean grade for each treated group is calculated and the effects of each compound are expressed as percent inhibition of the control grade.

Where [1] appears, read: 336 h, oral 50 mg./kg. once daily days 0-13, Day 14, read-out: % Inhibition of Swelling (primary lesion) Day 14.
Setting [2] is: 504 h, oral 50 mg./kg. once daily days 0-13, Day 21, read-out: % Inhibition of Swelling (primary lesion) Day 21.
Where [3] appears, read: oral 50 mg./kg. once daily days 0-13, Day 14.
Setting [4] is: oral 50 mg./kg. once daily days 0-13, Day 21.
Setting [5] is: oral 50 mg./kg. once daily days 0-13.
Setting [6] is: po, 336 h, read-out: % Inhibition of Swelling (primary lesion) Day 14.
Setting [7] is: po, 504 h, read-out: % Inhibition of Swelling (primary lesion) Day 21.
The mark [8] stands for this setting: oral 25 mg./kg. once daily days 0-13, Day 14.
Where [9] appears, read: oral 25 mg./kg. once daily days 0-13, Day 21.
The mark [10] stands for this setting: oral 100 mg./kg. once daily days 0-13, Day 14.
Where [11] appears, read: oral 100 mg./kg. once daily days 0-13, Day 21.
[12] abbreviates: oral 100 mg./kg. once daily days 0-13.
Setting [13] is: oral 200 mg./kg. once daily days 0-13, Day 14.
Where [14] appears, read: oral 200 mg./kg. once daily days 0-13, Day 21.
[15] abbreviates: oral 400 mg./kg. once daily days 0-13, Day 14.
Where [16] appears, read: oral 400 mg./kg. once daily days 0-13, Day 21.

With `CC(C)(C)C(C)(C)Nc1nc(N[C@H]2C[C@@H]3CC[C@H]2C3)nc(NC(C)(C)C(C)(C)C)n1` (relative stereo) [N^2-(exo[2.2.1]norbornyl)-N^4, N^6-bis(1,1,2,2-tetramethylpropyl)melamine], the inhibition in vivo at 50 mg/kg stood at 49% under setting [1] and 24% under setting [2]. Moreover, the “Mean Weight Gain (grams) Day 14” value under setting [3] was found to be 97 grams. Also, the “Mean Weight Gain (grams) Day 21” value under setting [4] stood at 93 grams. Further, the “Dead/Treated at 21 Days” value under setting [5] is recorded as 0/3.

With `CC(C)(C)CC(C)(C)Nc1nc(NC(C)(C)C)nc(N2CC3CCC(CC3)C2)n1` [2-(tert-butylamino)-4-(1,1,3,3-tetramethylbutylamino)-6-(3-azabicyclo[3.2.2]nonyl)-s-triazine], the inhibition in vivo at 50 mg/kg was 42% under setting [6] and 14% under setting [7]. In addition, under setting [3], the “Mean Weight Gain (grams) Day 14” value worked out at 85 grams. The “Mean Weight Gain (grams) Day 21” value under setting [4] is 87 grams. Moreover, the “Dead/Treated at 21 Days” value under setting [5] was 3/18.

With `CCCCNc1nc(N2CC3CCC(CC3)C2)nc(N2CC3CCC(CC3)C2)n1` [3,3'-(6-butylamino-s-triazin-2,4-diyl)bis-3-azabicyclo[3.2.2]nonane], the inhibition in vivo at 50 mg/kg stood at 46% under setting [6] and 32% under setting [7]. Further, the “Mean Weight Gain (grams) Day 14” value under setting [3] was found to be 82 grams. Besides, the “Mean Weight Gain (grams) Day 21” value under setting [4] is on record as 107 grams. Besides, the “Dead/Treated at 21 Days” value under setting [5] was 2/12.

As to `CC(C)(C)CC(C)(C)Nc1nc(NC(C)(C)CC(C)(C)C)nc(N2CC3CCC(CC3)C2)n1` [3-[4,6-bis(1,1,3,3-tetramethylbutylamino)-s-triazin-2-yl]-3-azabicyclo[3.2.2]nonane], the inhibition in vivo at 50 mg/kg under setting [6] is 59% and the inhibition in vivo at 50 mg/kg under setting [7] stood at 23%. Further, the “Mean Weight Gain (grams) Day 14” value under setting [3] turned out to be 76 grams. In addition, under setting [4], the “Mean Weight Gain (grams) Day 21” value was 67 grams. For the same compound, the “Dead/Treated at 21 Days” value under setting [5] is on record as 2/18.

As to `CC(C)(C)Nc1nc(NC(C)(C)C)nc(N2CC3CCC(CC3)C2)n1` [3-[4,6-bis(tert-butylamino)-s-triazin-2-yl]-3-azabicyclo[3.2.2]nonane], the inhibition in vivo at 50 mg/kg under setting [6] is 61% and the inhibition in vivo at 50 mg/kg under setting [7] was determined as 22%. In addition, the “Mean Weight Gain (grams) Day 14” value under setting [3] turned out to be 87 grams. Further, under setting [4], the “Mean Weight Gain (grams) Day 21” value is given as 69 grams. The “Dead/Treated at 21 Days” value under setting [5] is reported as 1/9.

Turning to `CC(C)(C)CC(C)(C)Nc1nc(NC(C)(C)C(C)(C)C)nc(N2CC3CCC(CC3)C2)n1` [3-[4-(1,1,3,3-tetramethylbutylamino)-6-[(1,1,2,2-tetramethylpropyl)amino]-s-triazin-2-yl]-3-azabicyclo[3.2.2]nonane], the inhibition in vivo at 50 mg/kg amounted to 74% under setting [6] and 42% under setting [7]. Moreover, under setting [3], the “Mean Weight Gain (grams) Day 14” value worked out at 66 grams. Further, the “Mean Weight Gain (grams) Day 21” value under setting [4] worked out at 91 grams. Also, the “Dead/Treated at 21 Days” value under setting [5] is 0/12.

With `CC(C)(C)CC(C)(C)Nc1nc(Nc2ccc(F)cc2)nc(N2CC3CCC(CC3)C2)n1` [3-[4-p-fluoroanilino-6-(1,1,3,3-tetramethylbutylamino)-s-triazin-2-yl]-3-azabicyclo[3.2.2]nonane], the inhibition in vivo at 50 mg/kg under setting [6] was 32% and the inhibition in vivo at 50 mg/kg under setting [7] was found to be 18%. For the same compound, the “Mean Weight Gain (grams) Day 14” value under setting [3] came out at 68 grams. Further, the “Mean Weight Gain (grams) Day 21” value under setting [4] is listed as 50 grams. In addition, the “Dead/Treated at 21 Days” value under setting [5] is 1/18.

As to `CC(C)(C)C(C)(C)Nc1nc(NC(C)(C)C(C)(C)C)nc(N2CC3CCC(CC3)C2)n1` [3-{4,6-bis[(1,1,2,2-tetramethylpropyl)amino]-s-triazin-2-yl}-3-azabicyclo[3.2.2]nonane], the inhibition in vivo at 25 mg/kg is, setting by setting: under setting [6], 42%; under setting [7], 24%. For the same compound, the inhibition in vivo at 50 mg/kg was 58% under setting [6] and 34% under setting [7]. The inhibition in vivo at 100 mg/kg reads like this: under setting [6], 74%; under setting [7], 41%. The “% Inhibition of Control Grade (secondary lesion) Day 14” value is listed as 44% under setting [8], 48% under setting [3] and 69% under setting [10]. In addition, the “Mean Weight Gain (grams) Day 14” value turned out to be 74 grams under setting [8], 56 grams under setting [3] and 73 grams under setting [10]. Besides, the “% Inhibition of Control Grade (secondary lesion) Day 21” value under setting [9] was determined as 12%, the “% Inhibition of Control Grade (secondary lesion) Day 21” value under setting [4] was 20% and the “% Inhibition of Control Grade (secondary lesion) Day 21” value under setting [11] was 45%. Besides, the “Mean Weight Gain (grams) Day 21” value reads like this: under setting [9], 70 grams; under setting [4], 58 grams; under setting [11], 62 grams. Besides, the “Dead/Treated at 21 Days” value is given as 1/18 (oral 25 mg./kg. once daily days 0-13), 0/36 under setting [5] and 1/18 under setting [12].

For the compound `CC(=O)Oc1ccccc1C(=O)O` [Aspirin], the inhibition in vivo at 50 mg/kg runs as follows: under setting [1], 23%; under setting [2], 3%. Besides, the inhibition in vivo at 100 mg/kg (336 h, oral 100 mg./kg. once daily days 0-13, Day 14, read-out: % Inhibition of Swelling (primary lesion) Day 14) is 36% and the inhibition in vivo at 100 mg/kg (504 h, oral 100 mg./kg. once daily days 0-13, Day 21, read-out: % Inhibition of Swelling (primary lesion) Day 21) turned out to be 13%. For the same compound, the inhibition in vivo at 200 mg/kg was determined as 48% (336 h, oral 200 mg./kg. once daily days 0-13, Day 14, read-out: % Inhibition of Swelling (primary lesion) Day 14) and 27% (504 h, oral 200 mg./kg. once daily days 0-13, Day 21, read-out: % Inhibition of Swelling (primary lesion) Day 21). Moreover, the inhibition in vivo at 400 mg/kg worked out at 73% (336 h, oral 400 mg./kg. once daily days 0-13, Day 14, read-out: % Inhibition of Swelling (primary lesion) Day 14) and 48% (504 h, oral 400 mg./kg. once daily days 0-13, Day 21, read-out: % Inhibition of Swelling (primary lesion) Day 21). For the same compound, the “% Inhibition of Control Grade (secondary lesion) Day 14” value runs as follows: under setting [3], 12%; under setting [10], 19%; under setting [13], 26%; under setting [15], 58%. In addition, the “Mean Weight Gain (grams) Day 14” value runs as follows: under setting [3], 56 grams; under setting [10], 48 grams; under setting [13], 40 grams; under setting [15], 41 grams. The “% Inhibition of Control Grade (secondary lesion) Day 21” value under setting [4] is 9%, the “% Inhibition of Control Grade (secondary lesion) Day 21” value under setting [11] is reported as 8%, the “% Inhibition of Control Grade (secondary lesion) Day 21” value under setting [14] is given as 17% and the “% Inhibition of Control Grade (secondary lesion) Day 21” value under setting [16] is reported as 45%. Moreover, the “Mean Weight Gain (grams) Day 21” value is, setting by setting: under setting [4], 44 grams; under setting [11], 53 grams; under setting [14], 44 grams; under setting [16], 55 grams. For the same compound, the “Dead/Treated at 21 Days” value is, setting by setting: under setting [5], 2/21; under setting [12], 18/63; (oral 200 mg./kg. once daily days 0-13) 10/66; (oral 400 mg./kg. once daily days 0-13) 18/57.

With `CC(C)(C)C(C)(C)Nc1nc(NC23CC4CC(CC(C4)C2)C3)nc(NC(C)(C)C(C)(C)C)n1` [N^2-1-adamantyl-N^4,N^6-bis(1,1,2,2-tetramethylpropyl)melamine], the inhibition in vivo at 50 mg/kg is, setting by setting: under setting [1], 47%; under setting [2], 17%. The “Mean Weight Gain (grams) Day 14” value under setting [3] is on record as 94 grams. Moreover, the “Mean Weight Gain (grams) Day 21” value under setting [4] was 89 grams. For the same compound, the “Dead/Treated at 21 Days” value under setting [5] is 1/12.

As for `CC(C)(C)C(C)(C)Nc1nc(NC2C3CC4CC(C3)CC2C4)nc(NC(C)(C)C(C)(C)C)n1` (stereo not shown) [N^2-2-adamantyl-N^4,N^6-bis(1,1,2,2-tetramethylpropyl)melamine], the inhibition in vivo at 50 mg/kg by setting is: under setting [1], 79%; under setting [2], 83%. The “Mean Weight Gain (grams) Day 14” value under setting [3] was 148 grams. For the same compound, the “Mean Weight Gain (grams) Day 21” value under setting [4] worked out at 181 grams. Moreover, the “Dead/Treated at 21 Days” value under setting [5] is listed as 1/3.

These data come from patent US4261892A, “2,4,6-Tris-(substituted-amino)-s-triazines” (American Cyanamid Company, priority 1979, dated 1981).
